Experimental data published in ChEMBL document CHEMBL1146241, “Novel inhibitor for fibroblast growth factor receptor tyrosine kinase” (Bioorg Med Chem Lett, 2007).

Assays:
[1] = molecular target: T1, Fibroblast growth factor receptor 1 (Homo sapiens, UniProt P11362); assay: Inhibition of human FGFR1 kinase expressed in insect cell by HTRF detection method
Target sequence in this assay (P11362 whole entry): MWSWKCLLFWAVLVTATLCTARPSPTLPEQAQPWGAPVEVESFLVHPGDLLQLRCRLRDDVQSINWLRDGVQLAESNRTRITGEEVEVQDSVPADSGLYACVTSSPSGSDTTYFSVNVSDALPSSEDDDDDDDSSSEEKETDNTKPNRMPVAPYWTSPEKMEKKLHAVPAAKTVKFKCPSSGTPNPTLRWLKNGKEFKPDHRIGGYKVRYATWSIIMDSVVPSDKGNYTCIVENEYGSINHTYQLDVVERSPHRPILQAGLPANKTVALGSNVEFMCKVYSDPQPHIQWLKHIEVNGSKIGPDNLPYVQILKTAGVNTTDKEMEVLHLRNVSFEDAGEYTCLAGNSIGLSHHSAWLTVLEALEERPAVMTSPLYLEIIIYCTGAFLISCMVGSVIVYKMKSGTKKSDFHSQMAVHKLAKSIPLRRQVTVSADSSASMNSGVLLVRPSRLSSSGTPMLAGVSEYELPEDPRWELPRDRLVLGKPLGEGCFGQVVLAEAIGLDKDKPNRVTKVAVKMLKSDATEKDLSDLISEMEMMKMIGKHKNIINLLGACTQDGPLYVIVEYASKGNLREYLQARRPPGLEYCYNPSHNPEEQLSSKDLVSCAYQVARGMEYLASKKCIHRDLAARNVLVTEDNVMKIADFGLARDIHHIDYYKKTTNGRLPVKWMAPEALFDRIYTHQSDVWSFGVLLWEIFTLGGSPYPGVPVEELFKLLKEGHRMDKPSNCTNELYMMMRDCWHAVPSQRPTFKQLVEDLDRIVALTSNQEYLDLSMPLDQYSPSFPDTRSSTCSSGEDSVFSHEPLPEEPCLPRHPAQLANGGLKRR

[2] = molecular target: T1, Fibroblast growth factor receptor 1; conditions: HUVEC
Target sequence in this assay (P11362 22-822 limits assumed): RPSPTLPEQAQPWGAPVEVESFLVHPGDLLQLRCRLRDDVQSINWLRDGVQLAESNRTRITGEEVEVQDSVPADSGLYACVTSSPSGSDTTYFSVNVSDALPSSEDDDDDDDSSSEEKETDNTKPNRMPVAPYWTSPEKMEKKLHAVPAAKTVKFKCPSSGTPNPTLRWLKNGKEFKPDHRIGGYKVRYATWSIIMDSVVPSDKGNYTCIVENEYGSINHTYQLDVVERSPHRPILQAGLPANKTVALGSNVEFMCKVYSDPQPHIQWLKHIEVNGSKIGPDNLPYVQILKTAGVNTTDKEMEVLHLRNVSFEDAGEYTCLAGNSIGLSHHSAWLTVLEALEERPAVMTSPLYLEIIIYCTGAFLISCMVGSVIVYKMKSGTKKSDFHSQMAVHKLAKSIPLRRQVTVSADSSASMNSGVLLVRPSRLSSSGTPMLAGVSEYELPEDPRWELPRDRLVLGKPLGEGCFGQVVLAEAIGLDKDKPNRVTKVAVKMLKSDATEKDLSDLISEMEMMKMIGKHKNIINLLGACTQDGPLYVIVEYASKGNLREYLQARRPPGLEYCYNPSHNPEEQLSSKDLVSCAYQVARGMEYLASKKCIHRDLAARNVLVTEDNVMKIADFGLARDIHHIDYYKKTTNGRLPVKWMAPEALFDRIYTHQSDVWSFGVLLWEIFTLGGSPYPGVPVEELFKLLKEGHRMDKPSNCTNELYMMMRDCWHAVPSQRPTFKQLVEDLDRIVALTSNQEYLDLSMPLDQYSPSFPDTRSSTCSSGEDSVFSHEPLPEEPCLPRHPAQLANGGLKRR
Description: Inhibition of rhFGF2-induced cellular proliferation of HUVEC

Row | Compound | IC50 [1] [nM] | MEC [2] [µM]
1 | COc1cccc(-c2ccc3c(c2)NC(=O)/C3=C\c2[nH]c(C)c(CCC(=O)O)c2C)c1 | 1200 | 0.4
2 | COc1cc(OC)cc(-c2ccc3c(c2)NC(=O)/C3=C\c2[nH]c(C)c(CCC(=O)O)c2C)c1 | 400 | 0.4
3 | Cc1[nH]c(/C=C2\C(=O)Nc3ccccc32)c(C)c1CCC(=O)O | – | 10
